Results as given in US20060183144A1, “Methods and compositions for assessing nucleic acids” (Medical College of Ohio, priority 2005, published 2006).

Tests used:
[1] = tested on: cytochrome p450 IA1 (CYPIAI); assay: Northern analysis of CYPIAI gene expression; format: cell-based, human; details: BEP2D cells incubated with β-napthoflavone (10 μM); control 0.1% DMSO; 32P-labeled CYPIAI cDNA probe
Description: RNA from BEP2D cells incubated for varying times with β-napthoflavone (10 μM) was either electrophoresed on a 1% LE formaldehyde denaturing gel for Northern analysis or MC RT-PCR amplified, as described above. For Northern analysis, following transfer of the RNA to GeneScreen, the filters were hybridized with ^32P-labeled CYPLAI cDNA.

[2] = tested on: cytochrome p450 (CYP) IAI gene; assay: MC RT-PCR with Celi competitive templates, induction of CYPIAI gene expression; format: cell-based, human; details: BEP2D cells incubated with β-napthoflavone (10 μM); control 0.1% DMSO; about the same cDNA loading by GAPDH reference gene
Description: In a second set of experiments, multiplex competitive reverse transcriptase polymerase chain reaction (MC RT-PCR) with competitive templates were prepared by the Celi method to evaluate the cytochrome p450 (CYP) IAI gene in β-napthoflavone-exposed BEP2D cells. The induction of CYPIAI gene expression was evaluated using both MC RT-PCR with Celi competitive templates, and Northern analysis. Competitive templates were prepared for both the CYPIAI and GAPDH genes. The primers used to prepare the competitive template for GAPDH were: […]
The PCR amplification conditions were the same as described for experiments using the competitive templates prepared for GAPDH and GSHPx by the Higuchi method except the annealing temperature was 55 degrees centigrade and the amplification was carried out for 38 cycles.
Because the native and competitive templates separate without prior restriction endonuclease digestion, samples were taken directly from the PCR reaction tube and applied to ethidium bromide stained 3% Nusieve, 1% LE agarose gels. It was then possible to quantify the products by taking a negative photograph of the gel using Polaroid 665 positive/negative instant film, subjecting the negative photograph to densitometry. […]

gene expression of the CYPIAI gene [1]: increase | band representing the native CYPIAI gene, exposed cells compared to control cells [2]: much more strongly represented
Compound: O=c1cc(-c2ccccc2)oc2ccc3ccccc3c12 [β-napthoflavone]
